{
  "source": "patent US3971757A",
  "about": "“3-Alkyl-4-oxo-imidazolidines and their 1-oxyls” (Ciba-Geigy Corporation, priority 1973, dated 1976)",
  "key": {"[1]": {"assay": "Compatibility with polyethylene sheets (efflorescence at room temperature)", "format": "physicochemical", "details": "1 mm sheets; for Compatibility 0.1% (number of days over which no efflorescence phenomena are detectable): 0.1 part in 100 parts polyethylene; for Compatibility 0.3% (number of days over which no efflorescence phenomena are detectable): 0.3 part in 100 parts polyethylene", "procedure": "(§1) 100 Parts of polyethylene having a density of 0.917 are homogeneously mixed in a Brabender plastograph with 0.1 and 0.3 parts, respectively, of a light-stabilising agent of formula I at 180°C for 10 minutes. The resulting mixture is moulded in a platen press at 170°C to give 1 mm thick sheets, and these are then examined visually for undissolved constituents. The sheets are suspended at room temperature and periodically examined for efflorescence phenomena.\n*Compatibility: number of days over which no efflorescence phenomena are […]"}, "[2]": {"assay": "Solubility in polyethylene sheets (visual examination for undissolved constituents)", "format": "physicochemical", "details": "1 mm sheets; for Solubility 0.1%: 0.1 part in 100 parts polyethylene (density 0.917); for Solubility 0.3%: 0.3 part in 100 parts polyethylene (density 0.917)", "procedure": "as §1"}, "[3]": {"assay": "Light stabilization of polypropylene film, carbonyl (CO) extinction on exposure in Xenotest 150", "details": "0.25 part per 100 parts polypropylene, 0.1 mm film, with 0.2 part antioxidant, no light stabilizer: 0.300 at 1,000 hours", "procedure": "100 parts of polypropylene powder (Moplen, fibre grade, from Messrs. Montedison) are homogenised with 0.2 part of β-(3,5-di-tert-butyl-4-hydroxyphenyl)-propionic acid octadecyl ester as the antioxidant and 0.25 part of a light stabilizer from Table 2 below, for 10 minutes in a Brabender plastograph at 200°C. The mass thus obtained is taken from the kneader as rapidly as possible and is pressed in a toggle press to give 2 - 3 mm thick sheets. A part of the pressed blank obtained is cut out and pressed between two high gloss hard aluminium foils for 6 minutes at 260°C and 12 tons pressure, using a manual hydraulic laboratory press, to give an 0.5 mm thick film which is immediately chilled in cold water. The 0.1 mm thick test film is produced from this 0.5 mm film under exactly the same conditions. Pieces of 60 × 44 mm are now punched from the 0.1 mm thick film and exposed in the Xenotest 150. At regular intervals of time, these test specimens are taken from the light exposure apparatus and examined for their carbonyl content in an IR-spectrophotometer. The increase in the carbonyl extinction during exposure to light is a measure of the photo-oxidative degradation of the polymer [see L. Balaban et al., J. Polymer Sci. Part C, 22, 1059-1071 (1969); J. F. Heacock, J. Polymer Sci. Part A-1, 22, 2921-34 (1969); D. J. Carlsson and DM. Wiles, Macromolecules 2,587-606 (1969)] and is, according to experience, associated with a deterioration of the mechanical properties of the polymer. Thus, for example, the film stabilised with antioxidant only is completely brittle when it reaches a carbonyl extinction of approx. 0.300. The protective action of the light stabilizers according to the invention can be seen from the following Table 3: […]"}, "[4]": {"assay": "Light stabilization of polystyrene sheets, yellowing factor after exposure in Xenotest 150", "details": "exposed 2,000 hours in Xenotest 150; 0.25 part per 100 parts polystyrene, 2 mm sheets; no light stabilizer: 20.0", "procedure": "100 parts of polystyrene granules are mixed dry with 0.25 part of a light stabilizer from Table 4 below and the mixture is regranulated in an extruder and subsequently moulded on an injection moulding machine to give 2 mm thick sheets. The sheets obtained are exposed for 2,000 hours in the Xenotest 150 apparatus and their yellowing is determined as follows, from the yellowing factor: [formula] wherein Δ T denotes the loss in transmission at wavelengths 420 and 680 nm respectively, which has occurred during exposure, and T(560) denotes the transmission value in percent of the unexposed sample at 560 nm."}},
  "data": [
    {"compound": "CCCCCCCCN1C(=O)C2(CCCCC2)NC12CCCCC2", "note": "[III]", "values": [
      {"measurement": "Compatibility 0.1% (number of days over which no efflorescence phenomena are detectable)", "setting": "[1]", "result": 200, "unit": "days"},
      {"measurement": "Compatibility 0.3% (number of days over which no efflorescence phenomena are detectable)", "setting": "[1]", "result": 200, "unit": "days"},
      {"measurement": "Solubility 0.1%", "setting": "[2]", "result": "dissolv."},
      {"measurement": "Solubility 0.3%", "setting": "[2]", "result": "dissolv."}
    ]},
    {"compound": "C=CCN1C(=O)C2(CCCCC2)NC12CCCCC2", "note": "[II]", "values": [
      {"measurement": "Compatibility 0.1% (number of days over which no efflorescence phenomena are detectable)", "setting": "[1]", "result": 200, "unit": "days"},
      {"measurement": "Compatibility 0.3% (number of days over which no efflorescence phenomena are detectable)", "setting": "[1]", "result": 200, "unit": "days"},
      {"measurement": "Solubility 0.1%", "setting": "[2]", "result": "dissolv."},
      {"measurement": "Solubility 0.3%", "setting": "[2]", "result": "dissolv."}
    ]},
    {"compound": "CCCCCCCCCCCCCCCCCCN1C(=O)C2(CCCCC2)NC12CCCCC2", "note": "[IV]", "values": [
      {"measurement": "Compatibility 0.1% (number of days over which no efflorescence phenomena are detectable)", "setting": "[1]", "result": 200, "unit": "days"},
      {"measurement": "Compatibility 0.3% (number of days over which no efflorescence phenomena are detectable)", "setting": "[1]", "result": 200, "unit": "days"},
      {"measurement": "Solubility 0.1%", "setting": "[2]", "result": "dissolv."},
      {"measurement": "Solubility 0.3%", "setting": "[2]", "result": "dissolv."}
    ]},
    {"compound": "O=C1N(Cc2ccccc2)C2(CCCCC2)NC12CCCCC2", "note": "[I]", "values": [
      {"measurement": "CO extinction (5.85 μ)", "setting": "[3]; exposure time 6,000 hours", "result": 0.010},
      {"measurement": "Y.F. (yellowing factor)", "setting": "[4]", "result": 4.5}
    ]},
    {"compound": "CCCCCCCCOC(=O)CN1C(=O)C2(CCCCC2)NC12CCCCC2", "note": "[VIII]", "values": [
      {"measurement": "Compatibility 0.1% (number of days over which no efflorescence phenomena are detectable)", "setting": "[1]", "result": 200, "unit": "days"},
      {"measurement": "Compatibility 0.3% (number of days over which no efflorescence phenomena are detectable)", "setting": "[1]", "result": 200, "unit": "days"},
      {"measurement": "Solubility 0.1%", "setting": "[2]", "result": "dissolv."},
      {"measurement": "Solubility 0.3%", "setting": "[2]", "result": "dissolv."}
    ]},
    {"compound": "O=C1N(CCCCN2C(=O)C3(CCCCC3)NC23CCCCC3)C2(CCCCC2)NC12CCCCC2", "note": "[VI]", "values": [
      {"measurement": "CO extinction (5.85 μ)", "setting": "[3]; exposure time 6,000 hours", "result": 0.010},
      {"measurement": "Y.F. (yellowing factor)", "setting": "[4]", "result": 5.5}
    ]},
    {"compound": "O=C(CN1C(=O)C2(CCCCC2)NC12CCCCC2)OCC(COC(=O)CN1C(=O)C2(CCCCC2)NC12CCCCC2)(COC(=O)CN1C(=O)C2(CCCCC2)NC12CCCCC2)COC(=O)CN1C(=O)C2(CCCCC2)NC12CCCCC2", "note": "[XI]", "values": [
      {"measurement": "CO extinction (5.85 μ)", "setting": "[3]; exposure time 5,000 hours", "result": 0.010}
    ]}
  ]
}
